According to ChEMBL document CHEMBL5154848, “Synthesis of heterocyclic ring-fused analogs of HMG499 as novel degraders of HMG-CoA reductase that lower cholesterol” (Eur J Med Chem, 2022):
pEC50: −log10 of the molar value.

Key:
[1] = Downregulation of HMGCR expression in CHO-K1 cells assessed as fold change in HMGCR expression at 3 uM incubated for 16 hrs by immunoblot analysis (reference value: 1.0); assay type: functional, Cricetulus griseus
[2] = Toxicity in human SV589 cells assessed as cholesterol accumulation in lysosome at 10 uM incubated for 16 hrs by immunofluorescence based confocal microscopy; assay type: cell-based; details: sv-589, 16 h
[3] = Downregulation of lovastatin-induced HMGCR expression in CHO-K1 cells assessed as fold change in HMGCR expression at 3 uM incubated for 16 hrs by immunoblot analysis (reference value: 15.2); assay type: functional, Cricetulus griseus
[4] = Downregulation of lovastatin-induced HMGCR expression in CHO-K1 cells assessed as fold change in HMGCR expression at 10 uM incubated for 16 hrs by immunoblot analysis (reference value: 15.2); assay type: functional, Cricetulus griseus
[5] = Downregulation of HMGCR expression in CHO-K1 cells assessed as fold change in HMGCR expression at 10 uM incubated for 16 hrs by immunoblot analysis (reference value: 1.0); assay type: functional, Cricetulus griseus
[6] = target: T1, 3-hydroxy-3-methylglutaryl-coenzyme A reductase (Homo sapiens) (UniProt P04035); test: Induction of HMGCR-T7 (unknown origin) degradation transfected in CHO-K1 cells assessed as HMGCR ubiquitination preincubated in sterol-depleted medium for 16 hrs followed by compound addition and measured after 4 hrs in presence of MG-132 by immuno-precipicitation analysis; assay type: cell-based; details: DDE = dose-dependent effect
T1 sequence (whole entry): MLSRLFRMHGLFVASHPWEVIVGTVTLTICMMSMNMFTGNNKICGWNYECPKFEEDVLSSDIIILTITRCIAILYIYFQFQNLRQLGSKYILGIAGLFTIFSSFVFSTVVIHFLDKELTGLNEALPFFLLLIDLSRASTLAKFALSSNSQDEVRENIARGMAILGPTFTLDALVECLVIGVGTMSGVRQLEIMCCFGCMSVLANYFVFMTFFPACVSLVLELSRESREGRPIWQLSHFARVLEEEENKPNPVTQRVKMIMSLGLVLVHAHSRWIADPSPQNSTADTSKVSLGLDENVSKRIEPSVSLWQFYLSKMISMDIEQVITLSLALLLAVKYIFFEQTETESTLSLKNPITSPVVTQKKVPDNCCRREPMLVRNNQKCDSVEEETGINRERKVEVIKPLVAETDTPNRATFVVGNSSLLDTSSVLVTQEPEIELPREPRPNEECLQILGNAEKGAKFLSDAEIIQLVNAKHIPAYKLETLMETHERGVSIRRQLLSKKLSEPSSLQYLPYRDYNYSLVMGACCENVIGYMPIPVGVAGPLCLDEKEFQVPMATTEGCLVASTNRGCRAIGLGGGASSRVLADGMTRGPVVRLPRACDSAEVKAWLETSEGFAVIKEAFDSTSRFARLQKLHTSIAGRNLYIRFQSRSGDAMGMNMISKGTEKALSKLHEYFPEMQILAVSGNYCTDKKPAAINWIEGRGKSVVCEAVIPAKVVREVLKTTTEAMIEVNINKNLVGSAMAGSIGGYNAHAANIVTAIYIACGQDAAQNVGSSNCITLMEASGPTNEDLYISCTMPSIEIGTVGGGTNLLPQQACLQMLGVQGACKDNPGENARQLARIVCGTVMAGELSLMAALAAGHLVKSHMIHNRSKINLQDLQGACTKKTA

[7] = target: T2, 3-hydroxy-3-methylglutaryl-coenzyme A reductase (Cricetulus griseus) (UniProt P00347); test: Induction of degradation of wild type HMGCR in CHO-K1 cells by immunoblot analysis; assay type: cell-based; details: DDE = dose-dependent effect
T2 sequence (whole entry): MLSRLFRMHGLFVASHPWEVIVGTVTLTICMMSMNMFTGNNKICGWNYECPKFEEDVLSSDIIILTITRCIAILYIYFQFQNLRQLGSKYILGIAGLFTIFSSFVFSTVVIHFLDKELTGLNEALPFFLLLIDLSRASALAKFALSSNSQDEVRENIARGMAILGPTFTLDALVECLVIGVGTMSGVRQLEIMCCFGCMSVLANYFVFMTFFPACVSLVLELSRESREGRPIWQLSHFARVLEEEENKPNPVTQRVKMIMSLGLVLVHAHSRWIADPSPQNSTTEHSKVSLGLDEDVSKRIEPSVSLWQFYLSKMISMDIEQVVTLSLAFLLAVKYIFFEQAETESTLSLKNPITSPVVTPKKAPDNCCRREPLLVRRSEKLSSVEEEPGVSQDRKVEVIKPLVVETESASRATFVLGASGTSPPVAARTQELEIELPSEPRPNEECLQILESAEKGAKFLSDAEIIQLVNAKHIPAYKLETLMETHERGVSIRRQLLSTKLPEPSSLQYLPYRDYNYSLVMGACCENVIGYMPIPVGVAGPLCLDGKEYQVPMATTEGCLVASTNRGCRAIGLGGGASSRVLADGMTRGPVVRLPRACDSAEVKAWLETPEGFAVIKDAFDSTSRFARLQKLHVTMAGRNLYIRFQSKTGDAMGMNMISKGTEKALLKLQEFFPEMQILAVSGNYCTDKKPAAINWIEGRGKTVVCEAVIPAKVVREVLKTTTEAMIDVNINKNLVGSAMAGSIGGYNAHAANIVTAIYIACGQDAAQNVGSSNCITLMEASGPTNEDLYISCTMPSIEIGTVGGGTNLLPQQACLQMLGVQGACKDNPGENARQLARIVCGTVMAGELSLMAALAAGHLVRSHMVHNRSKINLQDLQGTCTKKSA

LX-2 [8] = test: Downregulation of TGF-beta-1-induced cholesterol levels in human LX2 cells starved in serum free medium for 2 hrs followed by stimulation with TGF-beta-1 for 6 hrs and measured 24 hrs after compound treatment by; assay type: functional, cell-based; details: DDE = dose-dependent effect
LX-2 [9] = test: Downregulation of TGF-beta-1-induced alpha-SMA mRNA levels in serum starved human LX2 cells pretreated with TGF-beta-1 for 6 hrs followed by compound treatment for 24 hrs by SYBR green dye based qRT-PCR analysis; assay type: functional, cell-based; details: dose <= 2.0 µM, DDE = dose-dependent effect
LX-2 [10] = test: Downregulation of TGF-beta-1-induced COL1A1 mRNA levels in serum starved human LX2 cells pretreated with TGF-beta-1 for 6 hrs followed by compound treatment for 24 hrs by SYBR green dye based qRT-PCR analysis; assay type: functional, cell-based; details: dose <= 2.0 µM, DDE = dose-dependent effect
LX-2 [11] = test: Downregulation of TGF-beta-1-induced TIMP1 mRNA levels in serum starved human LX2 cells pretreated with TGF-beta-1 for 6 hrs followed by compound treatment for 24 hrs by SYBR green dye based qRT-PCR analysis; assay type: functional, cell-based; details: dose <= 2.0 µM, DDE = dose-dependent effect
RAW264.7 [12] = test: Downregulation of LPS-stimulated cholesterol levels in mouse RAW264.7 cells pretreated with LPS for 2 hrs followed by compound treatment for 24 hrs; assay type: functional, cell-based; details: dose <= 2.0 µM, DDE = dose-dependent effect
RAW264.7 [13] = test: Downregulation of LPS-stimulated IL-6 mRNA levels in mouse RAW264.7 cells pretreated with LPS for 2 hrs followed by compound treatment for 24 hrs by SYBR green dye based qRT-PCR analysis; assay type: functional, cell-based; details: dose <= 2.0 µM, DDE = dose-dependent effect
[14] = target: T3, 3-hydroxy-3-methylglutaryl-coenzyme A reductase (Cricetulus griseus, UniProt P00347); test: Induction of degradation of endogenous HMGCR in CHO-7 cells assessed as decrease in protein level incubated for 16 hrs in sterol-depleted medium by immunoblot analysis; assay type: cell-based
T3 sequence (P00347 whole entry): T2 sequence (whole entry)

CC(=O)n1ncc2c1C(C)(C)C1=CC[C@H]3[C@@H]4CC[C@H]([C@H](C)CCC(=O)N5CCOCC5)[C@@]4(C)CC[C@@H]3[C@@]1(C)C2
fold change (FC) [1]: 0.1
Activity [2]: Non-Toxic
fold change (FC) [3]: 1
fold change (FC) [4]: 0.4
fold change (FC) [5]: 0.1
Activity [6]: Dde
Activity [7]: Dde
Activity (LX-2 [8]): Dde
Activity (LX-2 [9]): Dde
Activity (LX-2 [10]): Dde
Activity (LX-2 [11]): Dde
Activity (RAW264.7 [12]): Dde
Activity (RAW264.7 [13]): Dde
pEC50 [14]: 6.89
